The values below come from ChEMBL document CHEMBL5233265, “Recent advances in the design and development of formyl peptide receptor 2 (FPR2/ALX) agonists as pro-resolving agents with diverse therapeutic potential” (Eur J Med Chem, 2021).

Assay [1] deals with Peritoneal macrophage. As to the kind of experiment: Induction of phagocytosis in C57BL6 mouse peritoneal macrophages assessed as increase in FITC signal preincubated with compound for 15 mins followed by zymosan addition and measured after 90 mins by Trypan Blue based FITC analysis.
Assay [2] has as its system HL-60. As to the kind of experiment: Inhibition of cell migration in human HL-60 cells incubated for 135 mins by transwell assay. It is filed as functional, cell-based. The settings on record: HL-60, 2.25 h.
For assay [3], the system named is Mus musculus. As to the kind of experiment: Neuroprotective activity against angiotensin II induced cardiac fibrosis mouse model assessed as reduction in fibrosis at 3 mg/kg,po qd measured after 3 weeks. Set-up: scale not given: the % may be the effect or the level left. It is filed as functional.
In assay [4] the test system is Mus musculus. In words: Neuroprotective activity against coronary artery occlusion mouse model assessed as reduction in left ventricular chamber dilatation at 3 mg/kg,po measured after […]. It is filed as functional. Set-up: scale not given: the % may be the effect or the level left.
The nature of assay [5]: Agonist activity at rat FPR2 expressed in CHO-A12 cells assessed as cAMP level incubated for 1.5 hr by HTRF assay. It is filed as cell-based.
In assay [6] the test system is Mus musculus. In words: Neuroprotective activity against DOCA induced cardiac fibrosis mouse model assessed as reduction in left ventricular fibrosis at 1 mg/kg,po qd measured after 3 weeks. It is filed as functional. Further details: scale not given: the % may be the effect or the level left.
The target in assay [7] is T1, N-formyl peptide receptor 2 (Homo sapiens, UniProt P25090).
T1 sequence (P25090 whole entry): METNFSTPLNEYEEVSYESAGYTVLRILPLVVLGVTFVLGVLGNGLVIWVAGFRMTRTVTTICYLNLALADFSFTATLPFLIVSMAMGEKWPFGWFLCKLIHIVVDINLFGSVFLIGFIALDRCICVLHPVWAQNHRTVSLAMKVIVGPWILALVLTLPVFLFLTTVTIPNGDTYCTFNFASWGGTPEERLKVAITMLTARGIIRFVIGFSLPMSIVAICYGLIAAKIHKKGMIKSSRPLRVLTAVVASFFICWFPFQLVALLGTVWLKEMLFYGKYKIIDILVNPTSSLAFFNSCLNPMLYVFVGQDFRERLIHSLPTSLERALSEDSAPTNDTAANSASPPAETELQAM
In words: Agonist activity at human FPR2 expressed in CHO-A12 cells assessed as cAMP level incubated for 1.5 hr by HTRF assay. It is filed as cell-based. (Changes in cAMP serve as a functional read-out for many G protein-coupled receptors.)

The subject of assay [8] is Mus musculus. In words: Neuroprotective activity against coronary artery occlusion mouse model assessed as reduction in left ventricular chamber dilatation at 0.3 mg/kg,po measured after […]. It is filed as functional. Further details: scale not given: the % may be the effect or the level left.
A short description of assay [9]: Agonist activity at rat FPR1 expressed in CHO-A12 cells assessed as cAMP level incubated for 1.5 hr by HTRF assay. It is filed as cell-based.
For assay [10], the target named is T1, N-formyl peptide receptor 2. In words: Agonist activity at human FPR2 expressed in CHO-K1 cells by beta-arrestin recruitment assay. It is filed as cell-based.
For assay [11], the target named is T2, Formyl peptide receptor 2 (Mus musculus, UniProt O88536).
T2 sequence (O88536 whole entry): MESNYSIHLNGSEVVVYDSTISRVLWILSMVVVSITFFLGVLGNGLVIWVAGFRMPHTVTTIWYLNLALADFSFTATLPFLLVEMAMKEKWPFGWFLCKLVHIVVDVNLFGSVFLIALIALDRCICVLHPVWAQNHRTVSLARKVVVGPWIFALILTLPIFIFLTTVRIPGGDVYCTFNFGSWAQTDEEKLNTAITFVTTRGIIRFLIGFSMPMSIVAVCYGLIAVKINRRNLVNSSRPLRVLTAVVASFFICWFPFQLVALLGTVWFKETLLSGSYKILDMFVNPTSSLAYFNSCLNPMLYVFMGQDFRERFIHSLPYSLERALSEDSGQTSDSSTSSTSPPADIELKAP
As to the kind of experiment: Agonist activity at mouse FPR2 expressed in CHO-A12 cells assessed as cAMP level incubated for 1.5 hr by HTRF assay. It is filed as cell-based.

Assay [12] deals with HL-60. As to the kind of experiment: Induction of cell migration in human HL-60 cells incubated for 120 mins by transwell assay. It is filed as functional, cell-based. The settings on record: HL-60, 2 h.
In assay [13] the test system is Rattus norvegicus. In words: Neuroprotective activity against ischemia-reperfusion injury Sprague-Dawley rat model assessed as increase in proximal viable myocardium at 10 mg/kg,po qd measured after 6 weeks. It is filed as functional.
Assay [14] has as its target T3, Formyl peptide receptor-related sequence 1 (Mus musculus, UniProt O08790).
T3 sequence (O08790 whole entry): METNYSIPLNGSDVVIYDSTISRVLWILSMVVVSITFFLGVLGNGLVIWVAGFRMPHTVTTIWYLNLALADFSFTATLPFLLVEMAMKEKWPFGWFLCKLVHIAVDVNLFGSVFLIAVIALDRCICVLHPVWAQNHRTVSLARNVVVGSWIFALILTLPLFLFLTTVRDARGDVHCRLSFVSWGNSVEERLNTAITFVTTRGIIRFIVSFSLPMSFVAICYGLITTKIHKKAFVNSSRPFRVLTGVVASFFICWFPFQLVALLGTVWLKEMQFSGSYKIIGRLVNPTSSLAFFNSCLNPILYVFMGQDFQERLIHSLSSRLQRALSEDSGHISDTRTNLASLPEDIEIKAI
As to the kind of experiment: Agonist activity at mouse FPR3 expressed in CHO-A12 cells assessed as cAMP level incubated for 1.5 hr by HTRF assay. It is filed as cell-based.

Assay [15] concerns Rattus norvegicus. In words: Neuroprotective activity against ischemia-reperfusion injury Sprague-Dawley rat model assessed as increase in mid viable myocardium at 10 mg/kg,po qd measured after 6 weeks. It is filed as functional.
In assay [16] the test system is HL-60. In words: Inhibition of cell migration in human HL-60 cells incubated for 120 mins in presence of serum amyloid A by transwell assay. The settings on record: HL-60, 2 h. It is filed as functional, cell-based.
Assay [17] addresses T4, fMet-Leu-Phe receptor (Homo sapiens, UniProt P21462).
T4 sequence (P21462 whole entry): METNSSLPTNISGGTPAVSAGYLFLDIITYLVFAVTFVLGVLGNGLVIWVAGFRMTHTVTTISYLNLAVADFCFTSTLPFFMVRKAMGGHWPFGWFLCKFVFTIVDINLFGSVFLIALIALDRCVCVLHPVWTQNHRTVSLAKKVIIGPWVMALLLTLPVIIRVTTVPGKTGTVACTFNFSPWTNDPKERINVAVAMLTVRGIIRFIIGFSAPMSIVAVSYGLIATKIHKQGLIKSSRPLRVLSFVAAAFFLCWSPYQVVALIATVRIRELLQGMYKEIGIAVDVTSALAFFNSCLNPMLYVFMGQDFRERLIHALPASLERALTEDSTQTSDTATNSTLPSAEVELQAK
As to the kind of experiment: Agonist activity at human FPR1 expressed in CHO-A12 cells assessed as cAMP level incubated for 1.5 hr by HTRF assay. It is filed as cell-based.

Assay [18] deals with T5, fMet-Leu-Phe receptor (Mus musculus, UniProt P33766).
T5 sequence (P33766 whole entry): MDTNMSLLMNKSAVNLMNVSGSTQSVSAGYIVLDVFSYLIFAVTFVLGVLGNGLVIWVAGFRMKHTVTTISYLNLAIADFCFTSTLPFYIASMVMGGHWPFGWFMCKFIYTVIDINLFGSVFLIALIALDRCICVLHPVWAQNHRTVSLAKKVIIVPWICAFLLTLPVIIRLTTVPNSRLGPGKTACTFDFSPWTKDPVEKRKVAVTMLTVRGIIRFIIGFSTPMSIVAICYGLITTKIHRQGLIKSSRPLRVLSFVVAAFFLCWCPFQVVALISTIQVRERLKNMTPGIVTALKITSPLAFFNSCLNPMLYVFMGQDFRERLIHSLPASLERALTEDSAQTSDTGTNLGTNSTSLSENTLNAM
In words: Agonist activity at mouse FPR1 expressed in CHO-A12 cells assessed as cAMP level incubated for 1.5 hr by HTRF assay. It is filed as cell-based.

Assay [19] concerns Mus musculus. In words: Neuroprotective activity against Myocardial infarction C57BL/6 mouse model assessed as reduction in infarct area at 10 mg/kg,po qd measured after 4 weeks. It is filed as functional. Further details: scale not given: the % may be the effect or the level left.
In assay [20] the test system is Mus musculus. As to the kind of experiment: Neuroprotective activity against Myocardial infarction C57BL/6 mouse model assessed as reduction in infarct area at 1 mg/kg,po qd measured after 4 weeks. It is filed as functional. Further details: scale not given: the % may be the effect or the level left.
For assay [21], the system named is Rattus norvegicus. As to the kind of experiment: Neuroprotective activity against ischemia-reperfusion injury Sprague-Dawley rat model assessed as increase in ejection fraction at 10 mg/kg,po qd measured after 6 weeks. It is filed as functional.
For assay [22], the system named is Mus musculus. In words: Neuroprotective activity against Myocardial infarction C57BL/6 mouse model assessed as fold increase in infarct wall thickness at 10 mg/kg,po qd measured after 4 weeks. It is filed as functional.
In assay [23] the test system is Rattus norvegicus. In words: Neuroprotective activity against ischemia-reperfusion injury Sprague-Dawley rat model assessed as increase in distal viable myocardium at 10 mg/kg,po qd measured after 6 weeks. It is filed as functional.

Where only a bound is given, the exact number is not on record here.

A word on the EC50: it is the concentration that produces a half-maximal response. The term IC50 denotes the concentration at which inhibition is half-maximal.

Turning to `COc1cc(F)c([C@@H]2CNC(=O)[C@H]2NC(=O)Nc2ccccc2)c(F)c1` [BMS-986235], the 50% effective concentration (EC50) in [1] came to 2 nM; in [5] it was 720 nM; in [7], 1250 nM; in [9], 1.5 nM. Besides, the half-inhibitory concentration (IC50) in [2] turned out to be 57 nM. The Activity turned out to be 89% in assay [3], 24% in [4], 50% in assay [6] and 26% in [8].
On to `Cn1c(C(C)(C)C)c(NC(=O)Nc2ccc(Cl)cc2)c(=O)n1-c1ccccc1`, for which the EC50 in [10] was 3100 nM; in assay [11] it was 50 nM; in assay [12], 78 nM; in [14], more than 1000 nM; in [17], 50 nM; in assay [7], 10 nM. Moreover, the EC50 in assay [18] turned out to be 20 nM. The Activity in [13] is 34%; in [15], 44%; in [19] it was 49%; in assay [20], 44%; in [21], 32%; in [23], 35%. Also, in assay [16], the IC50 came out at 189 nM. The “fold change (FC)” value in assay [22] is on record as 1.6.
